Reference: patent US6084120A, “β-Alkoxyacrylates against malaria” (Hoffmann-La Roche Inc., priority 1997, dated 2000)
≈ marks a conversion by molar mass, not a printed value. Where two headings read alike, the source gives them in different places.

Assays:
[1] = test system: human-pathogenic Plasmodium falciparum strain NF54; assay: Growth inhibition of Plasmodium falciparum in vitro, strain NF54 (chloroquine-sensitive), [G-3H]-hypoxanthin incorporation; format: cell-based; details: 72 h, read-out: in vitro strain NF 54 IC50 (growth inhibition) (converted)
Protocol: (§1) Test method for the determination of the activity against Plasmodium falciparum in vitro
(§2) The preparations are tested on intraerythrocytary stages of Plasmodium falciparum from asynchronous cultures according to the method of Desjardin et al. (Desjardins, R. E. et al: Quantitative assessment of antimalarial activity in vitro by a semiautomated microdilution technique. Antimicrob. Agents Chemother. 16, 710-718, (1979)).
(§3) The culture medium consists of RPMI 1640 with the addition of 25 mM HEPES, 25 mM NaHCO3, 100 μg/ml neomycin and 10% human serum (A^+). Human-A^+ erythrocytes are used as the Plasmodium falciparum host cells. The parasites are maintained at 37° C. in an atmosphere of 3% O2, 4% CO2, 93% N2 and 95% relative humidity.
(§4) In order to determine the activity, the preparations are dissolved in DMSO, pre-diluted in the culture medium to a suitable starting concentration and subsequently titrated-out on to microtitre plates in the 2nd stage over 6-7 steps. After the addition of the parasite culture (0.7% parasitemia in 2.5% erythrocyte suspension) the test plates are incubated under the conditions given above for 72 h. The parasite growth in the different preparation concentrations is determined using [G-^3 H]-hypoxanthin incorporation compared to untreated control cultures on the same test plates. The 50% growth inhibition (IC50) is calculated according to logit regression analysis from the resulting dosage-activity curve.
(§5) The preparations are tested on at least one chloroquine-resistant and one chloroquine-sensitive Plasmodium falciparum strain. Additional sensitive and resistant strains are included for further characterization.

[2] = test system: human-pathogenic Plasmodium falciparum K1; assay: Growth inhibition of Plasmodium falciparum in vitro, strain K1 (chloroquine-resistant), [G-3H]-hypoxanthin incorporation; format: cell-based; details: 72 h
Protocol: as §1, §2, §3, §4, §5

[3] = test system: Plasmodium berghei (strain ANKA); assay: Activity against Plasmodium berghei in vivo, reduction of parasitemia in infected mice; details: for inhibition in vivo at 100 mg/kg / inhibition in vivo at 10 mg/kg: Plasmodium berghei, 48 h after treatment; for inhibition in vivo at 100 mg/kg / in vivo sc act. % (toxic): single dose 100 mg/kg; for inhibition in vivo at 10 mg/kg: single dose 10 mg/kg
Protocol: Test method for the determination of the activity against Plasmodium berghei in vivo
The preparations are tested on mice infected with malaria pathogens (Plasmodium berghei). Male albino mice (IBM:MORO(SPF), FUELLINSDORF) weighing about 25 g are used as the test animals. They are kept in climatized rooms at 21-22° C. in groups of 5 animals per cage. They receive ad libitum a diet feed with a low PABA content (NAFAG FUTTER" No. 9009 PAB-45, PABA content 45 mg/kg) and drinking water. On the first day of the test (D0) the test animals are infected with Plasmodium berghei (strain ANKA). For this there is used heparinized blood of a donor mouse with about 30% parasitemia, which is diluted with physiological saline such that it contains 10^8 parasitized erythrocytes per ml. 0.2 ml of this suspension is injected intravenously (i.v.) into the mice to be treated and into the control mice. In untreated control animals the parasitemia normally reaches 30-40% on the third day after the infection (D+3) and the test animals die between days +5 and +7.
The substances to be tested are dissolved or suspended in distilled water or in a mixture of 7% Tween 80, 3% alcohol (96%) and water. Usually, 0.25 ml of this solution or suspension is administered once subcutaneously and perorally to groups of 5 test animals. Treatment is effected 24 hours after the infection. 10 control animals are treated in the same manner with solvent or suspension medium per test.
All substances are tested in a first test in a single dosage of 100 or 10 mg/kg. Only those substances which in this test (10 mg/kg) have shown a parasitaemia reduction of more than 90% are used for the titration. Suitable dilutions of the test substance can be used to obtain an accurate titration of the activity.
48 hours after the treatment (D+3) blood smears are prepared from all animals using blood from tail veins and are stained with giemsa. The average erythrocyte infection rate (parasitemiea in %) in the control groups as well as in the groups which have been treated with the test compounds is determined by counting under a microscope. The difference in the average values of the infection rates of control group (100%) and treated groups is calculated and expressed as a percentage reduction (GI%). The ED50 or ED90 is determined mathematically by means of the JMP programme (nonlinear fit). The ED50 (ED90) in mg/kg is that dose which after single administration reduces the average erythrocyte infection rate by 50% (90%) in comparison to the control group.

[4] = po, perorally, read-out: in vivo po act. % (percentage reduction of the parasitemia)
[5] = sc, subcutaneously, read-out: in vivo sc act. % (percentage reduction of the parasitemia)

Compound | IC50 [1] [µg/mL] | IC50 [2] [µg/mL] | inhibition in vivo at 100 mg/kg [3, 4] [%] | in vivo sc act. % (toxic) ([3]; subcutaneously) | inhibition in vivo at 100 mg/kg [3, 5] [%] | inhibition in vivo at 10 mg/kg [3, 4] [%]
CO/C=C(/C(=O)OC)c1ccccc1CSc1c(F)c(F)c(F)c(F)c1F [Example 11] | 1.17 (≈ 2.89 µM) | 4.9 (≈ 12.1 µM) | 80 | tox |  | 
CO/C=C(/C(=O)OC)c1ccccc1COc1cnc2cc(Br)cc(C)c2n1 [Example 28] | 17.7 (≈ 39.9 µM) | 19.1 (≈ 43.1 µM) |  |  |  | 
CO/C=C(/C(=O)OC)c1ccccc1CO/N=C(\C)c1cc(C(F)(F)F)cc(C(F)(F)F)c1 [Example 105] | 0.21 (≈ 0.442 µM) | 1.01 (≈ 2.12 µM) |  |  |  | 
CO/N=C(/C(=O)OC)c1ccccc1CO/N=C(\C)c1cccc(C(F)(F)F)c1 [Example 110] | 20 (≈ 49 µM) | 65.8 (≈ 161 µM) |  |  |  | 
CO/N=C(/C(=O)OC)c1ccccc1CO/N=C(\C)c1cc(C(F)(F)F)cc(C(F)(F)F)c1 [Example 111] | 1.6 (≈ 3.36 µM) | 4.3 (≈ 9.03 µM) |  |  |  | 
CO/C=C(/C(=O)OC)c1ccccc1/C=C/CSc1ccccc1C(F)(F)F [Example 120] | 1.75 (≈ 4.28 µM) | 2.51 (≈ 6.15 µM) | 46 |  | 91 | 
CO/C=C(/C(=O)OC)c1ccccc1/C=C/c1cc(OC)c(OC)cc1[N+](=O)[O-] [Example 126] | 1.2 (≈ 3 µM) | 3.3 (≈ 8.26 µM) | 79 |  | 76 | 
CO/C=C(/C(=O)OC)c1ccccc1/C=C/c1ccc(OC)c(OC)c1Cl [Example 136] | 1.04 (≈ 2.67 µM) | 2.9 (≈ 7.46 µM) | 40 | tox |  | 
CO/C=C(/C(=O)OC)c1ccccc1/C=C/C=C/c1ccccc1C(F)(F)F [Example 185, Methyl (E)-3-methoxy-2-[o-[(all-E)-4-(alpha,alpha,alpha-trifluoro-tolyl)-1,3-butadienyl]-phenl]acrylate] | 0.06 (≈ 0.154 µM) | 0.15 (≈ 0.386 µM) |  |  | 100 | 99
COC=C(C(=O)OC)c1ccccc1C=CC=Cc1ccc(C(F)(F)F)cc1C(F)(F)F [Example 199, (E)- or (Z)-2-[2-[4-(2,4-bis-trifluoromethyl-phenyl)-buta-1,3-dienyl]phenyl]-3-methoxy-acrylic acid methyl ester] | 0.06 (≈ 0.131 µM) | 0.13 (≈ 0.285 µM) |  |  | 100 | 100
CO/C=C(/C(=O)OC)c1ccccc1/C=C/C=C/c1ccccc1Br [Example 203, Methyl (E)-2-[o-[(all-E)-4-(o-bromophenyl)-1,3-butadienyl]phenyl]-3-methoxyacrylate] | 0.07 (≈ 0.175 µM) | 0.28 (≈ 0.701 µM) |  |  | 90 | 76
CON=C(C(=O)OC)c1ccccc1/C=C/C=C/c1ccccc1C(F)(F)F [Example 206, (Z)- or (E)-Methoxyimino-[2-[(1E,2E)-4-(2-trifluoromethylphenyl)-buta-1,3-dienyl]-phenyl]-acetic acid methyl ester] | 0.4 (≈ 1.03 µM) | 1.4 (≈ 3.6 µM) | 46 |  | 44 | 
CO/N=C(/C(=O)OC)c1ccccc1C#CC#Cc1ccccc1C(F)(F)F [Example 207] | 10.8 (≈ 28 µM) | 25.8 (≈ 67 µM) |  |  |  | 
CO/N=C(/C(=O)OC)c1ccccc1C#C/C=C/c1ccccc1C(F)(F)F [Example 209] | 3.21 (≈ 8.29 µM) | 5.7 (≈ 14.7 µM) |  |  |  | 
CO/C=C(/C(=O)OC)c1ccccc1CCCCc1ccccc1C(F)(F)F [Example 210] | 0.85 (≈ 2.17 µM) | 1.35 (≈ 3.44 µM) | 82 |  | 99 | 
CO/C=C(/C(=O)OC)c1ccccc1CCCCc1ccc(C(F)(F)F)cc1C(F)(F)F [Example 211] | 0.33 (≈ 0.717 µM) | 1.34 (≈ 2.91 µM) |  |  | 92 | 59
CO/N=C(/C(=O)OC)c1ccccc1-c1ccc(-c2ccccc2C(F)(F)F)s1 [Example 217] | 23.7 (≈ 56.5 µM) | 60.8 (≈ 145 µM) |  |  |  | 
CO/C=C(/C(=O)OC)c1csc2cccc(CN(C)[C@@H](C)c3ccccc3)c12 [Example 222] | 22.6 (≈ 57.1 µM) | 64.3 (≈ 163 µM) |  |  |  | 
CO/C=C(/C(=O)OC)c1csc2cccc(COC(=O)Cc3ccc(Cl)cc3Cl)c12 [Example 233] | 29.5 (≈ 63.4 µM) | 67.3 (≈ 145 µM) |  |  |  | 
CO/C=C(/C(=O)OC)c1csc2cccc(COC(=O)/C=C/c3cccc(C(F)(F)F)c3)c12 [Example 236] | 44.2 (≈ 92.8 µM) | 175 (≈ 367 µM) |  |  |  | 
CO/C=C(/C(=O)OC)c1csc2cccc(CO/N=C(\C)c3cccc(C(F)(F)F)c3)c12 [Example 238] | 17.5 (≈ 37.8 µM) | 40.9 (≈ 88.2 µM) |  |  |  | 
CO/C=C(/C(=O)OC)c1csc2cccc(/C=C/c3ccccc3)c12 [Example 241] | 1.4 (≈ 3.99 µM) | 7.4 (≈ 21.1 µM) |  |  |  | 
CO/C=C(/C(=O)OC)c1csc2cccc(/C=C/c3ccsc3)c12 [Example 243] | 6.7 (≈ 18.8 µM) | 22.6 (≈ 63.4 µM) |  |  |  | 
CO/C=C(/C(=O)OC)c1csc2c(C)cccc12 [Example 250] | 184 (≈ 703 µM) | 550 (≈ 2100 µM) |  |  |  | 
CO/C=C(/C(=O)OC)c1ccccc1/C=C/COC1CCCCO1 [Example 251, (E)-3-Methoxy-2-{(E)-2-[(R)- and (S)-3-(tetrahydro-pyran-2-yloxy}-propenyl]-phenyl}-acrylic acid methyl ester] | 64.9 (≈ 195 µM) | 111 (≈ 334 µM) | 40 |  | 74 | 
